These results are taken from patent US20230062100A1, “SUBSTITUTED AMINOQUINOLONES AS DGKALPHA INHIBITORS FOR IMMUNE ACTIVATION” (Bayer Aktiengesellschaft, priority 2019, published 2023).

One assay deals with T1, DGKα (Homo sapiens, UniProt P23743). As to the kind of experiment: Human DGKα kinase activity inhibition assay (ADP-Glo). It is filed as biochemical. The following applies: in vitro human DGKα kinase activity inhibition assay. In short, it runs like this:
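C-terminally FLAG-tagged full-length human DGKα from baculovirus/insect cells (typically ~0.1 nM) phosphorylated 1,2-dioleoyl-sn-glycerol in octyl-β-D-glucopyranoside micelles in MOPS pH 7.4. ADP formed was quantified by ADP-Glo luminescence after 1 h ATP depletion at 22 °C.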
For orientation: In ADP-Glo the light output rises with the ADP produced.
Target sequence in this assay (P23743 with tags, fused parts or gaps): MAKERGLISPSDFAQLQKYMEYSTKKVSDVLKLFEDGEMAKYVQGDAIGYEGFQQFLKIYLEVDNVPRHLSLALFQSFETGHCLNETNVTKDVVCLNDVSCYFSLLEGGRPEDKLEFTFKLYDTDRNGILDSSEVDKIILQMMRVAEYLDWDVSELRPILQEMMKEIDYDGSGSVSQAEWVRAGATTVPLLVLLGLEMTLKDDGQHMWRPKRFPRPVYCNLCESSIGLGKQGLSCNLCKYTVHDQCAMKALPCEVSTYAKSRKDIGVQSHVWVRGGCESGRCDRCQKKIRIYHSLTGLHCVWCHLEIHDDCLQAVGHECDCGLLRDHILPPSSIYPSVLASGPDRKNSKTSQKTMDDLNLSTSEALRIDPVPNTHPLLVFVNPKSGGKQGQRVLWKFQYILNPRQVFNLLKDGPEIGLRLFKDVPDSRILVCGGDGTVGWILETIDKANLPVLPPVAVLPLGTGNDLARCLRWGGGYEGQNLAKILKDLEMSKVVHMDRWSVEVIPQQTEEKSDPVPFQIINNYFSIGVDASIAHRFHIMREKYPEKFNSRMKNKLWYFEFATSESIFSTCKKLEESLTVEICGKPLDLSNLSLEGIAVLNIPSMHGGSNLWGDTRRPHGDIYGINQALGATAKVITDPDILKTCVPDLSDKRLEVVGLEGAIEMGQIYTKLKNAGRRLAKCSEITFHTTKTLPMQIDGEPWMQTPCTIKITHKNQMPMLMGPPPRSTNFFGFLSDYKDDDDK
On to `Cn1c(=O)c(C#N)c(N2CCC(Oc3ccc(OC(F)(F)F)cc3)CC2)c2ccc(O)cc21` [Example 62, 7-hydroxy-1-methyl-2-oxo-4-{4-[4-(trifluoromethoxy)phenoxy]piperidin-1-yl}-1,2-dihydroquinoline-3-carbonitrile], for which half-maximal inhibition (IC50) was put at 2.3 nM.

Take `Cn1c(=O)c(C#N)c(N2CCC(COc3ccccc3)CC2)c2ccccc21` [Example 118, 1-methyl-2-oxo-4-[4-(phenoxymethyl)piperidin-1-yl]-1,2-dihydroquinoline-3-carbonitrile]: half-maximal inhibition (IC50) was put at 123 nM. This IC50 lies about 53-fold higher than the previous one. As to `Cn1c(=O)c(C#N)c(N2CCC(Oc3ccc(OC(F)(F)F)cc3)CC2)c2cccc(Br)c21` [Example 130, 8-bromo-1-methyl-2-oxo-4-{4-[4-(trifluoromethoxy)phenoxy]piperidin-1-yl}-1,2-dihydroquinoline-3-carbonitrile], the IC50 (in general, the concentration at which inhibition is half-maximal) came out at 202 nM. The same measure, in the same setting: as for `CCCCOc1ccc2c(N3CCC(Sc4ccccc4)CC3)c(C#N)c(=O)n(C)c2c1` [Example 69, 7-butoxy-1-methyl-2-oxo-4-[4-(phenylsulfanyl)piperidin-1-yl]-1,2-dihydroquinoline-3-carbonitrile], the figure is 507 nM. On the same count and under the same terms, as for `COc1cccc(COC2CCN(c3c(C(N)=O)c(=O)n(C)c4ccccc34)CC2)c1` [Example 125, 4-{4-[(3-methoxyphenyl)methoxy]piperidin-1-yl}-1-methyl-2-oxo-1,2-dihydroquinoline-3-carboxamide], the figure is 43 nM; as for `Cn1c(=O)c(C#N)c(N2CCC(OCc3ccccc3)CC2)c2ccccc21` [Example 106, 4-[4-(benzyloxy)piperidin-1-yl]-1-methyl-2-oxo-1,2-dihydroquinoline-3-carbonitrile], 8.3 nM. Same read-out and setting: to `Cn1c(=O)c(C#N)c(N2CCC(Oc3cccc(F)c3)CC2)c2ccccc21` [Example 7, 4-[4-(3-fluorophenoxy)piperidin-1-yl]-1-methyl-2-oxo-1,2-dihydroquinoline-3-carbonitrile] belongs 8.6 nM.

Compound `Cn1c(=O)c(C(N)=O)c(N2CCC(Oc3ccc(Cl)cc3)CC2)c2ccc(N3CCCC3=O)cc21` [Example 97, 4-[4-(4-chlorophenoxy)piperidin-1-yl]-1-methyl-2-oxo-7-(2-oxopyrrolidin-1-yl)-1,2-dihydroquinoline-3-carboxamide] returned an IC50 of 122 nM.

As to `Cn1c(=O)c(C#N)c(N2CCC(Oc3ccc(C(F)(F)F)cc3)CC2)c2ccc(C3CC3)cc21` [Example 87, 7-cyclopropyl-1-methyl-2-oxo-4-{4-[4-(trifluoromethyl)phenoxy]piperidin-1-yl}-1,2-dihydroquinoline-3-carbonitrile], the IC50 is 40 nM. The compound `COc1ccc2c(N3CCC(Oc4ccc(OC(F)(F)F)cc4)CC3)c(C#N)c(=O)n(C)c2c1` [Example 71, 7-methoxy-1-methyl-2-oxo-4-{4-[4-(trifluoromethoxy)phenoxy]piperidin-1-yl}-1,2-dihydroquinoline-3-carbonitrile] displayed an IC50 of 5.7 nM. Compared with the last compound, the IC50 is about 7-fold lower. The same measure, in the same setting: to `COc1ccccc1OC1CCN(c2c(C#N)c(=O)n(C)c3ccccc23)CC1` [Example 11, 4-[4-(2-methoxyphenoxy)piperidin-1-yl]-1-methyl-2-oxo-1,2-dihydroquinoline-3-carbonitrile] belongs 11 nM; to `Cn1c(=O)c(C(N)=O)c(N2CCC(Oc3ccc(OC(F)(F)F)cc3)CC2)c2ccc(Cl)cc21` [Example 98, 7-chloro-1-methyl-2-oxo-4-{4-[4-(trifluoromethoxy)phenoxy]piperidin-1-yl}-1,2-dihydroquinoline-3-carboxamide], 1.9 nM.

`Cn1c(=O)c(C#N)c(N2CCC(Oc3ccc(C(N)=O)cc3)CC2)c2ccccc21` [Example 35, 4-{[1-(3-cyano-1-methyl-2-oxo-1,2-dihydroquinolin-4-yl)piperidin-4-yl]oxy}benzamide] gave a concentration for half-maximal inhibition (IC50) of 646 nM. Against the preceding compound, the IC50 is about 340-fold higher. The same measure, in the same setting: to `Cn1c(=O)c(C#N)c(N2CCC(Oc3ccc(C#N)cc3)CC2)c2ccccc21` [Example 32, 4-[4-(4-cyanophenoxy)piperidin-1-yl]-1-methyl-2-oxo-1,2-dihydroquinoline-3-carbonitrile] belongs 31 nM; to `Cn1c(=O)c(C#N)c(N2CCC(Sc3ccccc3)CC2)c2cc(C3CC3)ccc21` [Example 147, 6-cyclopropyl-1-methyl-2-oxo-4-[4-(phenylsulfanyl)piperidin-1-yl]-1,2-dihydroquinoline-3-carbonitrile], 32 nM; to `Cc1cc(Br)c2c(c1)c(N1CCC(Oc3ccc(OC(F)(F)F)cc3)CC1)c(C#N)c(=O)n2C` [Example 168, 8-bromo-1,6-dimethyl-2-oxo-4-{4-[4-(trifluoromethoxy)phenoxy]piperidin-1-yl}-1,2-dihydroquinoline-3-carbonitrile], 556 nM.

For the compound `Cn1c(=O)c(C#N)c(N2CCC(Sc3ccccc3)CC2)c2ccc(Br)cc21` [Example 55, 7-bromo-1-methyl-2-oxo-4-[4-(phenylsulfanyl)piperidin-1-yl]-1,2-dihydroquinoline-3-carbonitrile], the IC50 is 4.4 nM. Same read-out and setting: as for `COc1ccc2c(N3CCC(Oc4ccccc4)CC3)c(C#N)c(=O)n(C)c2c1` [Example 89, 7-methoxy-1-methyl-2-oxo-4-(4-phenoxypiperidin-1-yl)-1,2-dihydroquinoline-3-carbonitrile], the figure is 4.7 nM; as for `Cn1c(=O)c(C#N)c(N2CCC(COc3ccc(Cl)cc3)CC2)c2ccccc21` [Example 116, 4-{4-[(4-chlorophenoxy)methyl]piperidin-1-yl}-1-methyl-2-oxo-1,2-dihydroquinoline-3-carbonitrile], 6.4 nM; as for `Cn1c(=O)c(C#N)c(N2CCC(Oc3ccc(OC(F)(F)F)cc3)CC2)c2cc(C#N)ccc21` [Example 145, 1-methyl-2-oxo-4-{4-[4-(trifluoromethoxy)phenoxy]piperidin-1-yl}-1,2-dihydroquinoline-3,6-dicarbonitrile], 4.4 nM. The same measure, in the same setting: to `Cn1c(=O)c(C#N)c(N2CCC(Oc3ccc(Cl)cc3)CC2)c2ccc(C3COC3)cc21` [Example 72, 4-[4-(4-chlorophenoxy)piperidin-1-yl]-1-methyl-7-(oxetan-3-yl)-2-oxo-1,2-dihydroquinoline-3-carbonitrile] belongs 16 nM; to `Cc1cccc(OC2CCN(c3c(C(N)=O)c(=O)n(C)c4ccc(C)cc34)CC2)c1` [Example 158, 1,6-dimethyl-4-[4-(3-methylphenoxy)piperidin-1-yl]-2-oxo-1,2-dihydroquinoline-3-carboxamide], 12 nM.

For the compound `COCCc1ccc2c(N3CCC(Oc4ccc(Cl)cc4)CC3)c(C#N)c(=O)n(C)c2c1` [Example 75, 4-[4-(4-chlorophenoxy)piperidin-1-yl]-7-(2-methoxyethyl)-1-methyl-2-oxo-1,2-dihydroquinoline-3-carbonitrile], the IC50 was 3.7 nM. Still for that read-out and setting: to `Cn1c(=O)c(C#N)c(N2CCC(Oc3ccc(OC(F)F)cc3)CC2)c2ccccc21` [Example 39, 4-{4-[4-(difluoromethoxy)phenoxy]piperidin-1-yl}-1-methyl-2-oxo-1,2-dihydroquinoline-3-carbonitrile] belongs 4 nM. On the same count and under the same terms, as for `Cn1c(=O)c(C#N)c(N2CCC(Oc3ccc(OC(F)(F)F)cc3)CC2)c2cc(O)ccc21` [Example 167, 6-hydroxy-1-methyl-2-oxo-4-{4-[4-(trifluoromethoxy)phenoxy]piperidin-1-yl}-1,2-dihydroquinoline-3-carbonitrile], the figure is 0.94 nM. On the same count and under the same terms, to `Cc1ccc(COC2CCN(c3c(C(N)=O)c(=O)n(C)c4ccccc34)CC2)cc1` [Example 122, 1-methyl-4-{4-[(4-methylphenyl)methoxy]piperidin-1-yl}-2-oxo-1,2-dihydroquinoline-3-carboxamide] belongs 7.1 nM. For the compound `Cn1c(=O)c(C#N)c(N2CCC(Oc3ccc(F)cc3)CC2)c2cc(C3CC3)ccc21` [Example 148, 6-cyclopropyl-4-[4-(4-fluorophenoxy)piperidin-1-yl]-1-methyl-2-oxo-1,2-dihydroquinoline-3-carbonitrile], 73 nM corresponded to half-maximal inhibition (IC50). This IC50 lies about 10-fold higher than the previous one. Turning to `COc1cccc(OC2CCN(c3c(C(N)=O)c(=O)n(C)c4ccc(C)cc34)CC2)c1` [Example 159, 4-[4-(3-methoxyphenoxy)piperidin-1-yl]-1,6-dimethyl-2-oxo-1,2-dihydroquinoline-3-carboxamide], the IC50 stood at 12 nM. For the compound `Cn1c(=O)c(C(N)=O)c(N2CCC(OCc3cccc(F)c3)CC2)c2ccccc21` [Example 128, 4-{4-[(3-fluorophenyl)methoxy]piperidin-1-yl}-1-methyl-2-oxo-1,2-dihydroquinoline-3-carboxamide], half-maximal inhibition (IC50) required 29 nM. The same measure, in the same setting: to `Cn1c(=O)c(C#N)c(N2CCC(C)(Oc3ccc([N+](=O)[O-])cc3)CC2)c2ccccc21` [Example 40, 1-methyl-4-[4-methyl-4-(4-nitrophenoxy)piperidin-1-yl]-2-oxo-1,2-dihydroquinoline-3-carbonitrile] belongs 11 nM. Same read-out and setting: as for `Cn1c(=O)c(C#N)c(N2CCC(Oc3ccccc3)CC2)c2ccc(Br)cc21` [Example 54, 7-bromo-1-methyl-2-oxo-4-(4-phenoxypiperidin-1-yl)-1,2-dihydroquinoline-3-carbonitrile], the figure is 5.8 nM.

The target in another assay is T1, DGKα.
Experiment: not given
The following applies: literature report; cited from earlier work.
Target sequence in this assay (P23743 whole entry, species assumed): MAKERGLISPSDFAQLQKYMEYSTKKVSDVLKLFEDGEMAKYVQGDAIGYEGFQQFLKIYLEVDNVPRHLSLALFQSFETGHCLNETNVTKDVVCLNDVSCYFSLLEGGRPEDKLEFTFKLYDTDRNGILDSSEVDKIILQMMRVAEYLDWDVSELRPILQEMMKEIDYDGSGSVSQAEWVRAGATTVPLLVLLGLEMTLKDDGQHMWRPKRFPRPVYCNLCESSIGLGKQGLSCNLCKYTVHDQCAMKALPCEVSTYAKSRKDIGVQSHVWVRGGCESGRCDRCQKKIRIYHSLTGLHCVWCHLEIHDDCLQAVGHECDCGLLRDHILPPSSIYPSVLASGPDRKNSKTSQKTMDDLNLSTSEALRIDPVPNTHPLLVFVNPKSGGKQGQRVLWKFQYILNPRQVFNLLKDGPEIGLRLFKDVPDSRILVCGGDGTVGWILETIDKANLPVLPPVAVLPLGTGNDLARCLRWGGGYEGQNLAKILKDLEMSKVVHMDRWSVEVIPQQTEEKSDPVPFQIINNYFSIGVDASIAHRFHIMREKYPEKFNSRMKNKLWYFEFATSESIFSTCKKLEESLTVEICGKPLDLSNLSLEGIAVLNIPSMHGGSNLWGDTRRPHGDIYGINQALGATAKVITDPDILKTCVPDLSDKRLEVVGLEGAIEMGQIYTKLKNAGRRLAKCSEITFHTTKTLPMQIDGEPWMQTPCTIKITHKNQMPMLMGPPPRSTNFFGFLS
`Cc1ccc2c(C(=O)CN3CCN(C(=O)c4ccco4)CC3)c(C)[nH]c2c1` [AMB639752]: the “inhibitory activity on DGKα” value was “micromolar”. Turning to `O=C1/C(=C\C=C\c2ccco2)SC(=S)N1NS(=O)(=O)c1ccccc1` [CU-3], the “inhibitory activity on DGKα” value is on record as “sub-micromolar”. For `Cc1nc2sccn2c(=O)c1CCN1CCC(=C(c2ccc(F)cc2)c2ccc(F)cc2)CC1` [Ritanserin], the “inhibitory activity on DGKα” value is “comparable activity”.

Another assay concerns GBM tumors.
Experiment: not given
To be noted: concurrent administration; literature report; cited from earlier work.
With `Cc1nc2sccn2c(=O)c1CCN1CCC(=C(c2ccccc2)c2ccc(F)cc2)CC1` [Example R59022], the “growth of intracranially injected GBM tumors” value is on record as “decreased growth”.
